These results are taken from BindingDB's records for doi:10.1111/j.1600-0773.1996.tb00261.x (Uppsala University, 1996).

Where a SMILES comes first, the peptide text is derived from it. [ ]: non-standard residue; d: D form. Met(O2) = CS(=O)(=O)CC[C@H](N)C(=O)O

For this assay, the target named is Melanocortin receptor 4 (Homo sapiens, UniProt P32245).
Melanocortin receptor 4, sequence (P32245 whole entry): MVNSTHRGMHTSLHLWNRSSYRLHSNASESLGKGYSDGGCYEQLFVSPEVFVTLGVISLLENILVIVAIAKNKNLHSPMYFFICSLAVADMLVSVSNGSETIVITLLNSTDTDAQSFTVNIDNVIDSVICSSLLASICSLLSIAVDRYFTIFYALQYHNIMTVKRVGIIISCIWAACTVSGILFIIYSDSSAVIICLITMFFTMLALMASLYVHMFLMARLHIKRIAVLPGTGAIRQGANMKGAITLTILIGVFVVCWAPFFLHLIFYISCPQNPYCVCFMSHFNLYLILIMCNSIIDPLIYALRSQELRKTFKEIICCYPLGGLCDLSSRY
For `CS(=O)(=O)CC[C@H](N)C(=O)N[C@@H](CCC(=O)O)C(=O)N[C@@H](Cc1c[nH]cn1)C(=O)N[C@@H](Cc1ccccc1)C(=O)N[C@H](CCCCN)C(=O)N[C@@H](Cc1ccccc1)C(=O)O` [CAS_50913-82-1] (H-[Met(O2)]EHF[dK]F-OH), the Ki (as a rule, a measure of affinity in units of concentration, obtained from inhibition or displacement) is above 10 µM.

The compound H-SMEVRGW-OH [delta MSH] registered a Ki above 10 µM.

Compound “H-SYSMEHFRWGKPVGKKRRPVKVYPNGAEDESAEAFPLEF-OH [ACTH]” displayed a Ki of 0.693 µM.

As to “H-YVMGHFRWDRFGRRNGSSSSGVGGAAQ-OH [Gamma3-MSH]”, the Ki is above 10 µM.

The compound `CSCC[C@H](N)C(=O)N[C@@H](CCC(=O)O)C(=O)N[C@@H](Cc1cnc[nH]1)C(=O)N[C@@H](Cc1ccccc1)C(=O)N[C@@H](CCCNC(=N)N)C(=O)N[C@@H](Cc1c[nH]c2ccccc12)C(=O)NCC(N)=O` [NSC_123787] had an inhibition constant Ki above 10 µM.
